Here are results for 27 compounds from PubChem BioAssay (NCI).

What all share (assay): inhibition of tumour cell growth, NCI panel, 48 h
Assay [1] relates to A549 NSCLC.
Assay [2] has as its system MDA-MB-435.
For assay [3], the system named is RPMI-8226 leukemia.
For assay [4], the system named is NCI-H226 lung.
Assay [5] has as its system NCI-H522 lung.
The test system of assay [6] is UACC-62 melanoma.
Assay [7] concerns HL-60(TB) leukemia.
The subject of assay [8] is KM12 colon.
Assay [9] concerns COLO 205 colon.
For assay [10], the system named is HCC-2998 colon.

SMILES strings stand for the structures. Values joined by “and” are separate entries in the source; they are usually repeats but may differ in a detail not shown here. Equal values may be shown once.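 Exposure lasted 48 hours, with cells grown in 96-well plates and compounds tested at five concentrations. GI50 is the concentration that inhibits growth by half. At the TGI there is no net growth.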 Where a SMILES comes first, the peptide text is derived from it. [ ]: non-standard residue; d: D form. The star is where a group is joined. ξ: configuration not given here. NMeY = CN[C@@H](Cc1ccc(O)cc1)C(=O)O; Cbz = O=C(OCc1ccccc1)*; ξA = CC(N)C(=O)O

With `C/C(=N\N=C(N)N)c1c(C(=O)OCCCCCCOC(=O)c2nc3sccn3c2/C(C)=N/N=C(N)N)nc2sccn12`, the TGI in assay [1], in assay [2], in assay [3], in assay [4], in [5] and in assay [6] was over 100 µM throughout. For the same compound, the TGI in assay [7], in [8], in [9] and in assay [10] was over 100 µM in each case.

`COC(=O)Cc1c(C2=Nc3ccccc3C2(O)CC(=O)OC)[nH]c2ccccc12` (centres undefined): the TGI in [1], in assay [2], in assay [3], in assay [4], in assay [5] and in assay [6] was over 100 µM each time. Besides, the TGI in [7] is 62.7 µM; in [8] it was over 100 µM; in assay [9] it was 52.3 µM.

`CCOC(=O)C1C/C(C)=C(/C)SCCCS1` (centres undefined): the TGI in assay [1] was over 100 µM; in assay [2], over 100 µM; in assay [3] it was over 100 µM; in assay [4] it was over 100 µM; in assay [5], 41.5 µM; in assay [6] it was over 100 µM. The TGI in [7] was 54.6 µM; in assay [8], over 100 µM; in assay [9] it was over 100 µM; in assay [10] it was over 100 µM.

For `Cc1ccc(Nc2nc(=O)[nH]c(=O)[nH]2)cc1N`, the TGI in assay [1], in [2], in assay [3], in assay [4], in assay [5] and in assay [6] was over 100 µM in each case. The TGI in assay [7], in [8], in assay [9] and in [10] was over 100 µM each time.

Regarding `COc1ccc(C[C@@H](C(=O)NCC(N)=O)N(C)C(=O)[C@@H]2CCCN2C(=O)[C@H](CC(C)C)NC(=O)C(C)NC(=O)OCc2ccccc2)cc1` (some centres undefined) (Cbz-[ξA]LP[NMeY](Me)G-NH2), the TGI in assay [1], in [2], in [3], in assay [4], in assay [5] and in [6] was over 100 µM throughout. The TGI in assay [7], in assay [8], in assay [9] and in [10] was over 100 µM in each case.

As to `Oc1ccc2ccccc2c1-c1nnc(CCCCCCCCc2nnc(-c3c(O)ccc4ccccc34)o2)o1`, the TGI in assay [1] was 25 µM and 32.9 µM; in [2] it was 25 µM and > 100 µM; in assay [3] it was 25 µM and > 100 µM; in assay [4] it was 29.6 µM; in assay [5], 5.82 µM and 24.2 µM; in assay [6], 25 µM and > 100 µM. Moreover, the TGI in assay [7] is 2.5 µM; in [8] it was 25 µM and > 100 µM; in assay [9], 15 µM and > 44.9 µM; in assay [10], 11.9 µM and > 62.1 µM. Besides, the GI50 in [2] is 3.5 µM; in assay [3], 3.56 µM; in assay [5], 1.53 µM; in [6], 2.54 µM; in assay [8], 3.96 µM; in assay [9] it was 5.99 µM. Further, the GI50 in [10] was 5.04 µM.

For the compound `CCOC(=O)c1cc(-c2ccc(OC)c(OC)c2)c[nH]1`, the TGI in assay [1], in assay [2], in assay [3], in assay [4], in [5] and in assay [6] was over 10 µM in each case. The TGI in assay [7], in assay [8], in assay [9] and in assay [10] was over 10 µM each time.

For `CC1(C)CC(=O)C(/C=N/c2nc(-c3ccc(Br)cc3)cs2)=C(O)C1`, the TGI in assay [1] is over 100 µM; in [2] it was 76.5 µM; in assay [4], over 100 µM; in assay [7], over 100 µM; in assay [8] it was over 100 µM; in assay [9], 99.2 µM. This compound registered a TGI in assay [10] of 80.9 µM.

As to `Cc1ccc(-c2cc(-c3ccc(Cl)cc3)nc(/N=C3\C(=O)N(CN4CCCCC4)c4ccc(Cl)cc43)n2)cc1`, the TGI in assay [1] is 57.2 µM; in assay [2], 42.9 µM; in assay [4], over 100 µM; in [5] it was 27.8 µM; in assay [6], over 100 µM; in assay [7], 62.4 µM. In addition, the TGI in assay [8] turned out to be 35.4 µM; in assay [9], 80.5 µM; in assay [10], 29.7 µM.

On to `Cc1[nH]c(=O)nc(N/N=C/c2ccc(Cl)c(Cl)c2)c1C(=O)Nc1ccc(Cl)c(Cl)c1`, for which the TGI in [1] was 38.9 µM; in assay [2] it was over 39.5 µM; in assay [3] it was over 100 µM; in assay [4] it was over 52.2 µM; in [5], 44.7 µM; in assay [6] it was 41.2 µM. In addition, the TGI in assay [7] was over 78.2 µM; in assay [8] it was over 22.2 µM; in [9], over 44.1 µM; in assay [10], over 100 µM.

Turning to `CSc1c(C(C)=O)c(O)n(-c2ccc(Cl)cc2)c(=O)c1C#N`, the TGI was over 100 µM in assay [1]; over 100 µM in [2]; 99.2 µM in [3]; over 100 µM in assay [4]; 21.9 µM in assay [5]; over 100 µM in assay [6]. For the same compound, the TGI was 46.9 µM in [7], over 100 µM in [8], 65.6 µM in [9] and over 100 µM in [10].

Consider `O=S1(=O)NNC(=NCc2ccc(F)cc2)c2ccccc21`, for which the TGI was over 100 µM in [1]; over 100 µM in assay [2]; over 78.8 µM in assay [3]; over 100 µM in [4]; over 100 µM in [6]; 19.6 µM in assay [7]. The TGI in assay [8], in assay [9] and in assay [10] was over 100 µM each time.

`O=C1CCSSCCC(=O)Nc2ccccc2N1`: the TGI in assay [1], in assay [2], in [3], in assay [4], in assay [5] and in assay [6] was over 100 µM in each case. Also, the TGI in [7], in assay [8] and in assay [9] was over 100 µM in each case.

In the case of `CNc1ccc2nc(-c3ccc(OC(=O)N(C)C)cc3)cn2c1`, the TGI in assay [1] was 32.4 µM; in assay [2], 30.7 µM; in [4] it was 37.4 µM; in assay [5], 28.8 µM; in assay [6], 35.1 µM; in [7] it was 62.3 µM. In addition, the TGI in assay [8] came out at 32.3 µM; in assay [9], 32.2 µM; in assay [10], 81.2 µM.

For the compound `CC1=NN(c2nc(N)nc(/C(C#N)=C/c3ccncc3)n2)C(C)(C)C1`, the TGI in assay [2], in assay [3], in [4], in assay [6], in [7] and in assay [8] was over 100 µM in each case. Moreover, the TGI in [9] and in assay [10] was over 100 µM throughout.

Consider `CCOC(=O)/C=C1\Nc2ccccc2C12CCc1c([nH]c3ccccc13)C2C(=O)OCC` (centres undefined), for which the TGI in assay [1] was over 100 µM; in assay [2], 40.5 µM; in [3], 61.9 µM; in [5], over 100 µM; in [6], over 100 µM; in assay [7] it was over 100 µM. Moreover, the TGI in [8] was over 100 µM; in assay [9], 30.2 µM; in [10] it was over 100 µM.

`O=C1C/C(=C\O)C(=O)c2ccccc2N1`: the TGI in [1], in assay [2], in assay [4], in [5], in [6] and in assay [7] was over 100 µM each time. The TGI in assay [8], in [9] and in [10] was over 100 µM throughout.

As for `C=CCc1c(O)c2ccccc2[nH]c1=O`, the TGI in [1], in [2], in [3], in [4], in assay [5] and in assay [7] was over 100 µM throughout. The TGI in assay [8], in assay [9] and in assay [10] was over 100 µM in each case.

In the case of `C#CC(C)(C)Oc1cc(OC)c2c(=O)c3ccccc3n(C)c2c1`, the TGI in assay [1] was 74.1 µM; in [2] it was 26.9 µM; in [3], 25 µM; in assay [4], 36.4 µM; in assay [6], 32 µM; in [7], 28.7 µM. The TGI in assay [8] was 37.8 µM; in [9] it was 33.7 µM; in assay [10], over 100 µM.

Consider `COc1cc2c3c(n(CCCNCCO)c(=O)c2cc1OC)-c1cc2c(cc1C3=O)OCO2`, for which the GI50 in assay [2] was 0.528 µM and 1.34 µM; in assay [3] it was 0.173 µM; in assay [4], 0.0474 µM; in assay [5], 0.0144 µM; in assay [6] it was 0.0394 µM; in assay [7], under 0.0277 µM. The GI50 in assay [8] was 3.16 µM; in assay [10] it was 0.978 µM. Further, the TGI was over 100 µM in [3]; 1.46 µM and 0.269 µM in assay [4]; 0.966 µM and 3.8 µM in assay [5]; 0.842 µM and 0.779 µM in assay [6]; 2 µM and 5.42 µM in assay [9]; 1.97 µM and 11.1 µM in assay [10].

As to `CN(C)CCCn1c2ccccc2c2cnccc21`, the TGI in assay [1] was over 100 µM; in assay [2], over 100 µM; in assay [3] it was 71.6 µM; in assay [4], 59.7 µM; in [5], over 100 µM; in [6], over 100 µM. Also, the TGI in assay [7] is 99.8 µM; in assay [8] it was over 100 µM; in assay [9], 30.2 µM.

Turning to `CCOC(=O)c1c2c(n(C)c1-c1ccccc1)C(=O)C(C)=CC2=O`, the TGI in [1] was found to be 32.9 µM; in assay [2] it was 3.68 µM; in [3], 4.81 µM; in assay [4] it was 24.9 µM; in assay [5], 5.83 µM; in assay [6], 23.9 µM. Further, the values for the TGI in assay [7], in assay [8] and in [9] were 9.79 µM, 22.5 µM and 4.5 µM, respectively.

`CCCCCCCCCCCCC(=O)NCC(=O)NC(Cc1ccccc1)C(=O)Oc1ccc([N+](=O)[O-])cc1` (centres undefined): the TGI was over 100 µM in [1]; over 100 µM in assay [2]; over 100 µM in [4]; 81 µM in assay [5]; over 100 µM in [6]; over 100 µM in assay [7]. Besides, the TGI was over 100 µM in assay [8], 31.9 µM in assay [9] and over 100 µM in assay [10].

Take `O=C1/C(=C/c2cccc(Oc3ccccc3)c2)N=C(c2ccccc2)N1c1nc2ccc(Sc3ccccc3)cc2[nH]1`: the TGI was over 100 µM in assay [1]; 33.1 µM in [2]; 56.5 µM in assay [3]; 65.8 µM in [5]; 74.9 µM in [6]; 49.9 µM in assay [7]. Besides, the TGI in assay [8] was over 100 µM; in assay [9] it was 31.5 µM; in assay [10], 26.3 µM.

For the compound `N#Cc1c(=O)c2cccnc2n2c1[nH]c1ccccc12`, the TGI in assay [1], in assay [2], in [3], in assay [4], in assay [6] and in assay [7] was over 100 µM throughout. Moreover, the TGI in [8], in assay [9] and in assay [10] was over 100 µM each time.

With `O=[N+]([O-])c1ccc2nc3ccc([N+](=O)[O-])cn3c2c1`, the TGI in assay [1] is over 100 µM; in [2], over 100 µM; in assay [4], over 100 µM; in assay [5] it was 65.5 µM; in [6], over 100 µM; in [7], over 100 µM. In addition, the TGI in assay [8] and in [9] was over 100 µM throughout.

For the compound `CC1CN=C(c2cccc(OCc3ccc(COc4cccc(C5=NCC(C)N5)c4)cc3)c2)N1` (centres undefined), the TGI in [1] is over 100 µM; in [2], over 100 µM; in assay [3], 45.4 µM; in assay [5] it was over 100 µM; in [6] it was over 100 µM; in [7], over 100 µM. In addition, the TGI is 81.7 µM in assay [8], 39 µM in [9] and 48.4 µM in assay [10].
